What follows are compounds tested against recombinant human SYK (GST-hSYK fusion protein) (Homo sapiens, UniProt P43405) (assay: biochemical). Settings: Syk IC50, HTRF, recombinant human GST-SYK.
Source text: Homogeneous Time-Resolved Fluorescence (HTRF) Assay for the Recombinant Human SYK Enzyme:

| IC50 [nM] | Compound |
| --- | --- |
| < 0.5 | Cc1cc(Nc2nccc([C@@H](C)F)n2)cc(-c2cnc([C@@]3(O)CC[C@H](C(=O)O)C(C)(C)C3)s2)c1 [(1S,4R)-4-{5-[3-({4-[(1R)-1-fluoroethyl]pyrimidin-2-yl}amino)-5-methylphenyl]-1,3-thiazol-2-yl}-4-hydroxy-2,2-dimethylcyclohexanecarboxylic acid] |

Same assay, conditions: rhSYK Activity (IC50), recombinant human GST-SYK 5 pM, ATP 25 μM, biotinylated substrate peptide 250 nM, HTRF, 10-dose titration

| Compound | IC50 [nM] |
| --- | --- |
| CC(=O)Nc1cc(Nc2nccc(OC3CCN(C(=O)OC(C)(C)C)CC3)n2)cc(-c2cnc(C3(O)CCC3)s2)c1 [109(1), tert-butyl 4-[2-({3-(acetylamino)-5-[2-(1-hydroxycyclobutyl)-1,3-thiazol-5-yl]phenylamino)pyrimidin-4-yl]oxy}piperidine-1-carboxylate] | 100 to 1000 |
| CC(=O)Nc1cc(Nc2nccc(OC3CCNCC3)n2)cc(-c2cnc(C3(O)CCC3)s2)c1 [109(2), N-(3-[2-(1-hydroxycyclobutyl)-1,3-thiazol-5-yl]-5-{[4-(piperidin-4-yloxy)pyrimidin-2-yl]-amino}phenyl)acetamide] | < 100 |
| Cc1cc(Nc2nccc(C3CC3)n2)cc(-c2cnc([C@]3(O)CC[C@@H](C(=O)O)CC3)s2)c1 [110(1), Cis-4-(5-(3-[(4-cyclopropylpyrimidin-2-yl)amino]-5-methylphenyl)-1,3-thiazol-2-yl)-4-hydroxycyclohexanecarboxylic acid] | < 100 |
| CCOP(=O)(OCC)[C@]1(O)CC[C@](O)(c2ncc(-c3cc(C)cc(Nc4nccc(C(F)(F)F)n4)c3)s2)CC1 [155(B), Diethyl{trans-1,4-dihydroxy-4-[5-(3-methyl-5-{[4-(trifluoromethyl)pyrimidin-2-yl]amino}phenyl)-1,3-thiazol-2-yl]cyclohexyl}phosphonate] | < 100 |

The next lines start with the values.

| IC50 [nM] | Compound |
| --- | --- |
| < 100 | Cc1cc(Nc2nccc(C(F)(F)F)n2)cc(-c2cnc(C3(O)CC(C)(C)C(C(=O)O)CC3O)s2)c1 (stereo not drawn) [142(1), 1,4-Trans, 1,5-trans-4,5-dihydroxy-2,2-dimethyl-4-[5-(3-methyl-5-{[4-(trifluoromethyl)pyrimidin-2-yl]amino}phenyl)-1,3-thiazol-2-yl]cyclohexanecarboxylic acid] |
| < 100 | CO/C=C/c1ncc(-c2cc(C)cc(Nc3nccc(C(F)(F)F)n3)c2)s1 [153(A), N-(3-{2-[(E)-2-Methoxyethenyl]-1,3-thiazol-5-yl}-5-methylphenyl)-4-(trifluoromethyl)pyrimidin-2-amine] |
| < 100 | CO/C=C\c1ncc(-c2cc(C)cc(Nc3nccc(C(F)(F)F)n3)c2)s1 [153(B), N-(3-{2-[(Z)-2-Methoxyethenyl]-1,3-thiazol-5-yl}-5-methylphenyl)-4-(trifluoromethyl)pyrimidin-2-amine] |

Same assay, conditions: rhSYK Activity, Table 116A

| Compound | IC50 [nM] |
| --- | --- |
| Cc1cc(Nc2nc(C)cc(C)n2)cc(-c2cnc([C@]3(O)CC[C@@H](O)CC3)s2)c1 [116A-1] | 1000 to 10000 |
| Cc1cc(Nc2ncc(F)c(C)n2)cc(-c2cnc([C@]3(O)CC[C@@H](C(=O)O)CC3)s2)c1 [116A-2] | < 100 |
| Cc1cc(Nc2nccc(C(C)C)n2)cc(-c2cnc([C@]3(O)CC[C@@H](C(=O)O)CC3)s2)c1 [116A-3] | < 100 |
| Cc1cc(Nc2ncc(Cl)c(C)n2)cc(-c2cnc([C@]3(O)CC[C@@H](C(=O)O)CC3)s2)c1 [116A-4] | < 100 |
| COc1nc(Nc2cc(C)cc(-c3cnc([C@]4(O)CC[C@@H](C(=O)O)CC4)s3)c2)ncc1F [116A-5] | < 100 |
| Cc1cc(Nc2nccc(C(C)(C)C)n2)cc(-c2cnc([C@]3(O)CC[C@@H](C(=O)O)CC3)s2)c1 [116A-6] | < 100 |
| Cc1cc(Nc2nccc(OC(C)C)n2)cc(-c2cnc(C3(O)CCC(C(=O)O)CC3)s2)c1 (centres unmarked) [116A-7] | < 100 |
| COc1nc(Nc2cc(C)cc(-c3cnc(C4(O)CCC(C(=O)O)CC4)s3)c2)ncc1Cl (centres unmarked) [116A-8] | < 100 |
| Cc1cc(Nc2nccc(C(C)F)n2)cc(-c2cnc(C3(O)CCC(C(=O)OC(C)(C)C)CC3)s2)c1 (centres unmarked) [116A-10] | < 100 |
| COc1nc(Nc2cc(C)cc(-c3cnc(C4(O)CCC(C(=O)OC(C)(C)C)CC4)s3)c2)ncc1F (centres unmarked) [116A-11] | 100 to 1000 |
| Cc1cc(Nc2nccc(C(C)(C)C)n2)cc(-c2cnc(C3(O)CCC(C(=O)OC(C)(C)C)CC3)s2)c1 (centres unmarked) [116A-12] | 100 to 1000 |
| Cc1cc(Nc2nccc(C(F)(F)C(F)(F)F)n2)cc(-c2cnc(C3(O)CCC(C(=O)O)CC3)s2)c1 (centres unmarked) [116A-13] | < 100 |
| COc1nc(Nc2cc(C)cc(-c3cnc(C4(O)CCC(C(=O)OC(C)(C)C)CC4)s3)c2)ncc1Cl (centres unmarked) [116A-14] | 100 to 1000 |
| Cc1cc(Nc2nccc(-c3cccs3)n2)cc(-c2cnc(C3(O)CCC(C(=O)OC(C)(C)C)CC3)s2)c1 (centres unmarked) [116A-15] | 100 to 1000 |
| Cc1cc(Nc2nccc(C(F)F)n2)cc(-c2cnc(C3(O)CCC(C(=O)O)C(C)C3)s2)c1 (centres unmarked) [116A-18] | < 100 |
| Cc1cc(Nc2nccc(C(C)(C)C)n2)cc(-c2cnc(C3(O)CCC(C(=O)O)C(C)C3)s2)c1 (centres unmarked) [116A-20] | < 100 |
| Cc1cc(Nc2nccc(OC(C)C)n2)cc(-c2cnc(C3(O)CCC(C(=O)O)C(C)C3)s2)c1 (centres unmarked) [116A-21] | < 100 |
| COC(=O)C1CCC(O)(c2ncc(-c3cc(C)cc(Nc4ncc(F)cn4)c3)s2)CC1(C)C (centres unmarked) [116A-22] | 100 to 1000 |
| Cc1cc(Nc2ncc(F)c(O)n2)cc(-c2cnc(C3(O)CCC(C(=O)O)C(C)(C)C3)s2)c1 (centres unmarked) [116A-23] | 100 to 1000 |
| Cc1cc(Nc2nccc(C(=O)O)n2)cc(-c2cnc([C@@]3(O)CC[C@H](C(=O)O)C(C)(C)C3)s2)c1 [116A-24] | < 100 |
| COC(=O)C1CCC(O)(c2ncc(-c3cc(C)cc(Nc4ncc(F)c(C)n4)c3)s2)CC1(C)C (centres unmarked) [116A-25] | < 100 |
| Cc1cc(Nc2ncc(Cl)c(C)n2)cc(-c2cnc([C@@]3(O)CC[C@H](C(=O)O)C(C)(C)C3)s2)c1 [116A-27] | < 100 |
| COc1nc(Nc2cc(C)cc(-c3cnc(C4(O)CCC(C(=O)O)C(C)(C)C4)s3)c2)ncc1F (centres unmarked) [116A-28] | < 100 |

The next lines start with the values.

| IC50 [nM] | Compound |
| --- | --- |
| < 100 | Cc1cc(Nc2nccc(C(F)F)n2)cc(-c2cnc([C@@]3(O)CC[C@H](C(=O)O)C(C)(C)C3)s2)c1 [116A-30] |
| < 100 | Cc1cc(Nc2nccc(C3CCC3)n2)cc(-c2cnc([C@@]3(O)CC[C@H](C(=O)O)C(C)(C)C3)s2)c1 [116A-31] |
| < 100 | Cc1cc(Nc2nccc(C(C)(C)C)n2)cc(-c2cnc(C3(O)CCC(C(=O)O)C(C)(C)C3)s2)c1 (centres unmarked) [116A-32] |
| < 100 | Cc1cc(Nc2nccc(OC(C)C)n2)cc(-c2cnc([C@@]3(O)CC[C@H](C(=O)O)C(C)(C)C3)s2)c1 [116A-33] |
| 100 to 1000 | COC(=O)C1CCC(O)(c2ncc(-c3cc(C)cc(Nc4ncc(Cl)c(C)n4)c3)s2)CC1(C)C (centres unmarked) [116A-34] |
| 100 to 1000 | COC(=O)C1CCC(O)(c2ncc(-c3cc(C)cc(Nc4ncc(F)c(OC)n4)c3)s2)CC1(C)C (centres unmarked) [116A-35] |
| < 100 | COc1nc(Nc2cc(C)cc(-c3cnc(C4(O)CCC(C(=O)O)C(C)(C)C4)s3)c2)ncc1Cl (centres unmarked) [116A-36] |
| 100 to 1000 | COC(=O)C1CCC(O)(c2ncc(-c3cc(C)cc(Nc4ncc(Cl)c(OC)n4)c3)s2)CC1(C)C (centres unmarked) [116A-38] |
| < 100 | Cc1cc(Nc2nccc([C@@H](C)F)n2)cc(-c2cnc([C@@]3(O)CC[C@H](C(=O)O)C(C)(C)C3)s2)c1 [116A-39] |
| < 100 | Cc1cc(Nc2nccc([C@H](C)F)n2)cc(-c2cnc([C@@]3(O)CC[C@H](C(=O)O)C(C)(C)C3)s2)c1 [116A-40] |
